Experimental data from publication PMC8605562, “MSMEG_3955 from Mycobacterium smegmatis is a FMN bounded homotrimeric NAD(P)H:Flavin mononucleotide (FMN) oxidoreductase” (BMC Microbiology, 2021).

Experiments:
[1] = target: T1, MSMEG_3955 (Mycolicibacterium smegmatis, UniProt A0QZA6); experiment: NADPH oxidation at […] nm; type: biochemical; conditions: 200 uM NADPH, 50 uM FMN, 1.6 uM enzyme, 50 mM Tris-HCl pH 7.6, 25 °C, aerobic
T1 construct: ~36 kDa subunit, homotrimer ~115 kDa; co-purifies with FMN
T1 sequence (A0QZA6 entry or part of it): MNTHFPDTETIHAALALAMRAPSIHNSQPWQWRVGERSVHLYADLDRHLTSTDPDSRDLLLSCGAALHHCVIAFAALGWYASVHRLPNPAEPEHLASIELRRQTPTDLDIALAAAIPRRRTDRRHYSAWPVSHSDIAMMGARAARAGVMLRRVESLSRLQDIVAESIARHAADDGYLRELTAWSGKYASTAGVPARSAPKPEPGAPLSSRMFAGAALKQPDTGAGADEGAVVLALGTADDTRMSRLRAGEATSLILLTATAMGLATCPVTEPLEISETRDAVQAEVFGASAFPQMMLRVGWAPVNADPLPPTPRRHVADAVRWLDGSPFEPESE

[2] = target: the molecule itself; experiment: native gel or EMSA; NATIVE-PAGE (12% in the methods, 10% in the legend of Fig. 3a) of purified protein loaded without any treatment, 10 ug (Fig. 3a) or 20 ug each of wild type and mutant (Fig. 2a); band at ~115 kDa against ~36 kDa on SDS-PAGE

For `NC(=O)C1=CN([C@@H]2O[C@H](COP(=O)(O)OP(=O)(O)OC[C@H]3O[C@@H](n4cnc5c(N)ncnc54)[C@H](OP(=O)(O)O)[C@@H]3O)[C@@H](O)[C@H]2O)C=CC1` [NADPH], the “NADPH oxidation at 340 nm” value [1] was “showed oxidative NADPH dependent FMN reductase activity as oxidation of NADPH was seen”.

B1: MSMEG_3955 with cysteine 63 replaced by alanine (enzyme, Mycobacterium smegmatis mc2 155, UniProt A0QZA6 1-334, looked up)
chain: MNTHFPDTETIHAALALAMRAPSIHNSQPWQWRVGERSVHLYADLDRHLTSTDPDSRDLLLSAGAALHHCVIAFAALGWYASVHRLPNPAEPEHLASIELRRQTPTDLDIALAAAIPRRRTDRRHYSAWPVSHSDIAMMGARAARAGVMLRRVESLSRLQDIVAESIARHAADDGYLRELTAWSGKYASTAGVPARSAPKPEPGAPLSSRMFAGAALKQPDTGAGADEGAVVLALGTADDTRMSRLRAGEATSLILLTATAMGLATCPVTEPLEISETRDAVQAEVFGASAFPQMMLRVGWAPVNADPLPPTPRRHVADAVRWLDGSPFEPESE
notes: MSMEG_3955, Mycobacterium smegmatis mc2 155, made by site-directed mutagenesis on the pET-28a plasmid of the wild-type gene; cysteine (TGC) at position 63 replaced with alanine (GCC); Same construct as m1 apart from C63A; also called cys-63 mutated native protein MSMEG_3955; mutated protein; source: E. coli BL21 (DE3), pET-28a, purified (Ni-NTA)
B1: binds [2].
